Our source for the IC50 values is BindingDB's records for doi:10.1021/jm00128a027 (Rorer Central Research, 1989).

The experiment concerns the target Polyunsaturated fatty acid 5-lipoxygenase (Cavia porcellus). As to the kind of experiment: In vitro inhibition of polymorphonuclear leukocyte derived guinea pig 5-lipoxygenase.

Regarding `O=C(CCCc1ccccc1)N(O)CCc1ccccc1`, the half-maximal inhibitory concentration (IC50) was determined as 130 nM.
Under `O=C(c1ccc(OCc2ccccc2)cc1)N(O)CCc1ccccc1` stands 50 nM.
